Non-standard residues stand in square brackets, D forms with d. Arg(NO2) = N=C(NCCC[C@H](N)C(=O)O)N[N+](=O)[O-]
Experiments:
[1] = Effect of temperature (and pH) on the stability of the solution (purity); assay type: physicochemical; details: 7% solution in water
[2] = Effect of concentration on the stability of the solution (purity over time); details: 1 equivalent sodium acetate in 50% ethanol at 25° C.

CCN(CC)CCOC(=O)Cc1c(C)n(C(=O)c2ccc(Cl)cc2)c2ccc(OC)cc12.Cl
Purity(%) at day 0 ([1]; pH 1.0, day 0): 98.1 ± 0.3% | Purity(%) at day 21 (5° C.) ([1]; pH 1.0, day 21, 5° C.): 92.3 ± 0.3% | Purity(%) at day 21 (25° C.) ([1]; pH 1.0, day 21, 25° C.): 69.0 ± 0.3% | Purity(%) at day 21 (40° C.) ([1]; pH 1.0, day 21, 40° C.): 15.3 ± 0.3% | Purity (%) at day 21 (60° C.) ([1]; pH 1.0, day 21, 60° C.): 0% | Purity(%) at day 0 ([1]; pH 2.0, day 0): 98.3 ± 0.4% | Purity(%) at day 21 (5° C.) ([1]; pH 2.0, day 21, 5° C.): 95.9 ± 0.3% | Purity(%) at day 21 (25° C.) ([1]; pH 2.0, day 21, 25° C.): 83.1 ± 0.3% | Purity(%) at day 21 (40° C.) ([1]; pH 2.0, day 21, 40° C.): 27.5 ± 0.3% | Purity (%) at day 21 (60° C.) ([1]; pH 2.0, day 21, 60° C.): 0% | Purity(%) at day 0 ([1]; pH 3.0, day 0): 98.5 ± 0.2% | Purity(%) at day 21 (5° C.) ([1]; pH 3.0, day 21, 5° C.): 97.3 ± 0.3% | Purity(%) at day 21 (25° C.) ([1]; pH 3.0, day 21, 25° C.): 94.5 ± 0.2% | Purity(%) at day 21 (40° C.) ([1]; pH 3.0, day 21, 40° C.): 49.3 ± 0.3% | Purity (%) at day 21 (60° C.) ([1]; pH 3.0, day 21, 60° C.): 0% | Purity(%) at day 0 ([1]; pH 3.7, day 0): 98.5 ± 0.2% | Purity(%) at day 21 (5° C.) ([1]; pH 3.7, day 21, 5° C.): 97.7 ± 0.2% | Purity(%) at day 21 (25° C.) ([1]; pH 3.7, day 21, 25° C.): 97.3 ± 0.3% | Purity(%) at day 21 (40° C.) ([1]; pH 3.7, day 21, 40° C.): 57.9 ± 0.2% | Purity (%) at day 21 (60° C.) ([1]; pH 3.7, day 21, 60° C.): 16.3 ± 0.5% | Purity(%) at day 0 ([1]; pH 4.0, day 0): 98.7 ± 0.1% | Purity(%) at day 21 (5° C.) ([1]; pH 4.0, day 21, 5° C.): 98.1 ± 0.3% | Purity(%) at day 21 (25° C.) ([1]; pH 4.0, day 21, 25° C.): 97.5 ± 0.2% | Purity(%) at day 21 (40° C.) ([1]; pH 4.0, day 21, 40° C.): 68.7 ± 0.3% | Purity (%) at day 21 (60° C.) ([1]; pH 4.0, day 21, 60° C.): 19.6 ± 0.3% | Purity(%) at day 0 ([1]; pH 4.3, day 0): 98.8 ± 0.2% | Purity(%) at day 21 (5° C.) ([1]; pH 4.3, day 21, 5° C.): 98.3 ± 0.3% | Purity(%) at day 21 (25° C.) ([1]; pH 4.3, day 21, 25° C.): 97.3 ± 0.3% | Purity(%) at day 21 (40° C.) ([1]; pH 4.3, day 21, 40° C.): 70.1 ± 0.3% | Purity (%) at day 21 (60° C.) ([1]; pH 4.3, day 21, 60° C.): 17.7 ± 0.2% | Purity(%) at day 0 ([1]; pH 4.6, day 0): 98.7 ± 0.1% | Purity(%) at day 21 (5° C.) ([1]; pH 4.6, day 21, 5° C.): 98.2 ± 0.2% | Purity(%) at day 21 (25° C.) ([1]; pH 4.6, day 21, 25° C.): 96.4 ± 0.2% | Purity(%) at day 21 (40° C.) ([1]; pH 4.6, day 21, 40° C.): 56.3 ± 0.2% | Purity (%) at day 21 (60° C.) ([1]; pH 4.6, day 21, 60° C.): 15.3 ± 0.3% | Purity(%) at day 0 ([1]; pH 5.0, day 0): 98.6 ± 0.3% | Purity(%) at day 21 (5° C.) ([1]; pH 5.0, day 21, 5° C.): 97.0 ± 0.2% | Purity(%) at day 21 (25° C.) ([1]; pH 5.0, day 21, 25° C.): 94.1 ± 0.3% | Purity(%) at day 21 (40° C.) ([1]; pH 5.0, day 21, 40° C.): 42.8 ± 0.3% | Purity (%) at day 21 (60° C.) ([1]; pH 5.0, day 21, 60° C.): 1.9 ± 0.2% | Purity(%) at day 0 ([1]; pH 6.0, day 0): 98.5 ± 0.4% | Purity(%) at day 21 (5° C.) ([1]; pH 6.0, day 21, 5° C.): 95.3 ± 0.3% | Purity(%) at day 21 (25° C.) ([1]; pH 6.0, day 21, 25° C.): 87.8 ± 0.2% | Purity(%) at day 21 (40° C.) ([1]; pH 6.0, day 21, 40° C.): 27.6 ± 0.2% | Purity (%) at day 21 (60° C.) ([1]; pH 6.0, day 21, 60° C.): 0% | Purity(%) at day 0 ([1]; pH 7.0, day 0): 98.4 ± 0.3% | Purity(%) at day 21 (5° C.) ([1]; pH 7.0, day 21, 5° C.): 90.2 ± 0.3% | Purity(%) at day 21 (25° C.) ([1]; pH 7.0, day 21, 25° C.): 59.9 ± 0.3% | Purity(%) at day 21 (40° C.) ([1]; pH 7.0, day 21, 40° C.): 11.4 ± 0.4% | Purity (%) at day 21 (60° C.) ([1]; pH 7.0, day 21, 60° C.): 0% | Purity(%) at day 0 ([1]; pH 8.0, day 0): 98.0 ± 0.5% | Purity(%) at day 21 (5° C.) ([1]; pH 8.0, day 21, 5° C.): 79.3 ± 0.4% | Purity(%) at day 21 (25° C.) ([1]; pH 8.0, day 21, 25° C.): 47.6 ± 0.3% | Purity(%) at day 21 (40° C.) ([1]; pH 8.0, day 21, 40° C.): 0% | Purity (%) at day 21 (60° C.) ([1]; pH 8.0, day 21, 60° C.): 0%

H-Val-Pro-Gly-Pro-Arg(NO2)—OCH2CH3•HCl (H-VPGP[Arg(NO2)]-OEt; also: HCl salt)
Purity at Day 30 ([2]; 0.01 wt %): 55.5% | Purity at Day 90 ([2]; 0.01 wt %): 22.2% | Purity at Day 180 ([2]; 0.01 wt %): 0% | Purity at day 0 ([2]; 0.01 wt %): 98.1% | Purity at Day 30 ([2]; 0.1 wt %): 65.7% | Purity at Day 90 ([2]; 0.1 wt %): 31.3% | Purity at Day 180 ([2]; 0.1 wt %): 9.6% | Purity at day 0 ([2]; 0.1 wt %): 98.2% | Purity at Day 30 ([2]; 1 wt %): 91.1% | Purity at Day 90 ([2]; 1 wt %): 77.3% | Purity at Day 180 ([2]; 1 wt %): 58.6% | Purity at day 0 ([2]; 1 wt %): 98.5% | Purity at Day 30 ([2]; 3 wt %): 96.8% | Purity at Day 90 ([2]; 3 wt %): 93.2% | Purity at Day 180 ([2]; 3 wt %): 87.8% | Purity at day 0 ([2]; 3 wt %): 98.6% | Purity at Day 30 ([2]; 5 wt %): 97.3% | Purity at Day 90 ([2]; 5 wt %): 94.9% | Purity at Day 180 ([2]; 5 wt %): 90.5% | Purity at day 0 ([2]; 5 wt %): 98.7% | Purity at Day 30 ([2]; 7 wt %): 97.6% | Purity at Day 90 ([2]; 7 wt %): 95.2% | Purity at Day 180 ([2]; 7 wt %): 91.7% | Purity at day 0 ([2]; 7 wt %): 98.7% | Purity at Day 30 ([2]; 8 wt %): 97.7% | Purity at Day 90 ([2]; 8 wt %): 95.2% | Purity at Day 180 ([2]; 8 wt %): 91.6% | Purity at day 0 ([2]; 8 wt %): 98.6% | Purity at Day 30 ([2]; 10 wt %): 97.5% | Purity at Day 90 ([2]; 10 wt %): 95.3% | Purity at Day 180 ([2]; 10 wt %): 91.7% | Purity at day 0 ([2]; 10 wt %): 98.6% | Purity at Day 30 ([2]; 15 wt %): 97.7% | Purity at Day 90 ([2]; 15 wt %): 95.3% | Purity at Day 180 ([2]; 15 wt %): 91.8% | Purity at day 0 ([2]; 15 wt %): 98.8% | Purity at Day 30 ([2]; 20 wt %): 97.5% | Purity at Day 90 ([2]; 20 wt %): 95.1% | Purity at Day 180 ([2]; 20 wt %): 91.5% | Purity at day 0 ([2]; 20 wt %): 98.6% | Purity at Day 30 ([2]; 30 wt %): 97.5% | Purity at Day 90 ([2]; 30 wt %): 95.1% | Purity at Day 180 ([2]; 30 wt %): 91.6% | Purity at day 0 ([2]; 30 wt %): 98.7% | Purity at Day 30 ([2]; 50 wt %): 97.7% | Purity at Day 90 ([2]; 50 wt %): 95.3% | Purity at Day 180 ([2]; 50 wt %): 91.8% | Purity at day 0 ([2]; 50 wt %): 98.7%

From patent US20230157952A1, “METHOD FOR IMPROVING THE STABILITY OF A PHARMACEUTICAL COMPOSITION COMPRISING A HIGH PENETRATION DRUG, AND THE PHARMACEUTICAL COMPOSITION OBTAINED THEREFROM” (Techfields Inc., priority 2020, published 2023)
